# Key:
# [1] = Plasma stability, mouse plasma (Balb/c; Table 5 head CD-1 Mouse); assay type: in vitro ADME; conditions: balb/c plasma, 2 μM, anti-coagulant K2-EDTA; for % Remaining at T120: 120 min
# CYP2C8 = biological target: T1, CYP2C8 (Homo sapiens, UniProt P10632); experiment: CYP450 panel inhibition in human liver microsomes, 2C8 (amodiaquine); conditions: 10 μM, substrate amodiaquine
# T1 sequence (P10632 1-490): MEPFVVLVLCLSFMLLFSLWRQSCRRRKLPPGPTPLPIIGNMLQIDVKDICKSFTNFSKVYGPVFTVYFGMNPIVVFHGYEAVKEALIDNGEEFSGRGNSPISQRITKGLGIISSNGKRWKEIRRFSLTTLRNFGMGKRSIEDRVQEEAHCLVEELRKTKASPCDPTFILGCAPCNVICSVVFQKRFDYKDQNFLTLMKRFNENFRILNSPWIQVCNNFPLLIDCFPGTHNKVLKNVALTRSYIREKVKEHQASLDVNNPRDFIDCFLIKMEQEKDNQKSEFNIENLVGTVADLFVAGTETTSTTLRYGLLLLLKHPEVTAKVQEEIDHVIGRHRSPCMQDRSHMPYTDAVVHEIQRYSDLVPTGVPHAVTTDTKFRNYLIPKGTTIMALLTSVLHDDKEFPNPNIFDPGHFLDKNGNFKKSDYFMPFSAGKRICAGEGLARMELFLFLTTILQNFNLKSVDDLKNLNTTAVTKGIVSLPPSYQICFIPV
# CYP3A4 = CYP3A4 (Homo sapiens, UniProt P08684); experiment: CYP450 panel inhibition in human liver microsomes, 3A4 (midazolam / testosterone); conditions: 10 μM; for CYP-3A4 (Midazolam) mean percentage CYP inhibition: substrate midazolam; for CYP-3A4 (Testosterone) mean percentage CYP inhibition: substrate testosterone
# Chain of CYP3A4 (P08684 whole entry): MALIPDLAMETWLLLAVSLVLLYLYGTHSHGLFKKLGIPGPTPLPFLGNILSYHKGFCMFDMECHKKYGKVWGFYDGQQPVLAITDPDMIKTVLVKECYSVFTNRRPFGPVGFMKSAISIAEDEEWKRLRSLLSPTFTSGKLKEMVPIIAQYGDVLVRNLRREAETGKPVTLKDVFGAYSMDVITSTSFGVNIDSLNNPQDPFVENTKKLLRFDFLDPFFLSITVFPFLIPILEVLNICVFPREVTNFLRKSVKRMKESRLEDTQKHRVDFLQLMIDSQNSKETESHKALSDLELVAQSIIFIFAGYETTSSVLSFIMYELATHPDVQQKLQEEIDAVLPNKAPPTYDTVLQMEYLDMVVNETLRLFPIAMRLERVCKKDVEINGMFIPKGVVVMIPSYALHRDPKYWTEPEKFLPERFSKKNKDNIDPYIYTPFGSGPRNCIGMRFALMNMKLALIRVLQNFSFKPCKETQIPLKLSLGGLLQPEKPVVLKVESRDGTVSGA
# [2] = Plasma stability, beagle dog plasma (K2EDTA); assay type: in vitro ADME; conditions: beagle dog plasma, 2 μM, anti-coagulant K2-EDTA; for % Remaining at T120: 120 min
# [3] = Plasma stability, human plasma (K2EDTA); assay type: in vitro ADME; conditions: human plasma, 2 μM, anti-coagulant K2-EDTA; for T1/2: 10 to 120 min; for % Remaining at T120: 120 min
# [4] = Plasma stability, rat plasma (Wistar Han / wistar hannover; Table 5 head SD Rat); assay type: in vitro ADME; conditions: wistar hannover rat plasma, 2 μM, anti-coagulant K2-EDTA; for % Remaining at T120: 120 min
# human hepatocytes = experiment: Hepatocyte stability, human; assay type: in vitro ADME; conditions: 2 μM, 0.5 million cells/ml; for % Remaining At T120 / T1/2: 120 min
# Procedure: In this study, human, cynomolgus monkey, beagle dog, wistar hannover rat, and balb/c mouse hepatocyle stability was determined.
# PAMPA (pH 7.4) = assay type: in vitro ADME; conditions: pH = 7.4
# [5] = Plasma stability, cynomolgus monkey plasma (K2-EDTA); assay type: in vitro ADME; conditions: 2 μM, anti-coagulant K2-EDTA; for % Remaining at T120: 120 min
Structure (SMILES),T1/2 [1] [h],% Remaining at T120 [1] [%],CYP-2C8 (Amodiaquine) mean percentage CYP inhibition (CYP2C8) [%],CYP-3A4 (Midazolam) mean percentage CYP inhibition (CYP3A4) [%],CYP-3A4 (Testosterone) mean percentage CYP inhibition (CYP3A4) [%],T1/2 [2] [h],% Remaining at T120 [2] [%],T1/2 [3] [h],% Remaining at T120 [3] [%],T1/2 [4] [h],% Remaining at T120 [4] [%],CLint (L/hr/kg) (human hepatocytes) [L/h/kg],CLint (mL/min/kg) (human hepatocytes),% Remaining At T120 (human hepatocytes) [%],T1/2 (human hepatocytes) [h],PAMPA (pH = 7.4; Papp 10^−6 cm/s) (PAMPA (pH 7.4)),T1/2 [5] [h],% Remaining at T120 [5] [%]
CNS(=O)(=O)Nc1cccc(Cc2c(CN(C)C)c3ccc(OC(=O)N(C)C)cc3oc2=O)c1F [Compound 9],8.78,86.0,15.5,9.6,30.9,>2,100.5,>2,99.8,19.67,93.4,1.93,32.2,48.9,1.93,37 10^−6 cm/s,>2,110.4
CNS(=O)(=O)Nc1cccc(Cc2c(CN3CCNCC3)c3cc(F)c(OC(=O)N(C)C)cc3oc2=O)c1F [Compound 134],46.85,100.2,78.8,44.5,52.6,10.4,89.9,>2,107.8,21.15,95.2,0.148,2.46,94.7,25.35,–,15.8,93.0
CCCS(=O)(=O)Nc1cccc(Cc2c(CN3CCNCC3)c3cc(Cl)c(OC(=O)N(C)C)cc3oc2=O)c1F [Compound 167],>2,100.5,61.8,54.8,51.2,>2,106.2,15.8,84.6,>2,106.9,1.67,27.9,53.8,2.23,–,>2,117.3

# Reference: patent US20250179057A1, “MEK IMMUNE ONCOLOGY INHIBITORS AND THERAPEUTIC USES THEREOF” (Immuneering Corporation, priority 2022, published 2025)
